Assay results published in patent US8791155B2, “Chroman derivatives” (Edison Pharmaceuticals, Inc., priority 2003, dated 2014).
pEC50, pIC50: −log10 of the molar value.

What was measured:
[1] = test system: release of the leukotriene LTB4 from MPRO cell line; experiment: LTB4 assay (competitive ELISA); format: cell-based; conditions: Mus musculus; 1 μM calcium ionophore A23187, 1 hour; read-out: EC50, inhibition of LTB4 production
Excerpt: This procedure was used for measuring the release of the leukotriene LTB4 from a neutrophil cell line using a competitive ELISA technique.
• MPRO cell line (ATCC, Catalog #CRL-11422) • Calciumionophore (A23187) (Sigma, Catalog #C7522) • Nordihydroguaiaretic acid (NDGA) (BioMol, Catalog #E1101-0001) • Retinoic Acid (all-trans) (ATRA) (Sigma, Catalog #95152) • Sterile, tissue-culture treated 96-well plates (Corning, Catalog #3614) Materials for LTB4 ELISA • Precoated (Mouse Anti-Rabbit IgG) EIA 96 Well Strip Plates (Cayman, Catalog #400004) • Leukotriene B4 AChE Tracer (Cayman Catalog #420110) • Leukotriene B4 EIA Antiserum (Cayman Catalog #420112) • Ellman's Reagent (Cayman Catalog #400050) • EIA Buffer Concentrate (10×) (Cayman Catalog #400060) • Wash Buffer Concentrate (400×) (Cayman Catalog #400062) • Plastic plate covers (Cayman Catalog #400012) Procedure
A mouse promyelocytic cell line (MPRO) was used in this assay. These cells are committed immature neutrophils that can be differentiated into mature neutrophils by treatment with 10 μM all-trans retinoic acid for 72 hours
Following 72 hours of differentiation, cells were stimulated with 1 μM of a calcium ionophore (A23187) in the presence or absence of test compound or vehicle for 1 hour at 370 C. After this time, supernatant was removed from the cells and the LTB4 levels were determined following manufacturer's instructions, using a Leukotriene B4 EIA kit from Cayman (Cat #520111)
The negative controls were media samples from differentiated but unstimulated cells.
The compounds were screened at 5 concentrations in quadruplicate starting at 10 μM

[2] = molecular target: T1, human recombinant 5-lipoxygenase (Homo sapiens, UniProt P09917); experiment: 5-Lipoxygenase enzyme assay; format: biochemical; conditions: 70 μM arachidonic acid, pH 7.4, 10 minute incubation; read-out: IC50, inhibition of 5-Lipoxygenase
T1 construct: purchased Cayman 60402
T1 sequence (P09917 1-674): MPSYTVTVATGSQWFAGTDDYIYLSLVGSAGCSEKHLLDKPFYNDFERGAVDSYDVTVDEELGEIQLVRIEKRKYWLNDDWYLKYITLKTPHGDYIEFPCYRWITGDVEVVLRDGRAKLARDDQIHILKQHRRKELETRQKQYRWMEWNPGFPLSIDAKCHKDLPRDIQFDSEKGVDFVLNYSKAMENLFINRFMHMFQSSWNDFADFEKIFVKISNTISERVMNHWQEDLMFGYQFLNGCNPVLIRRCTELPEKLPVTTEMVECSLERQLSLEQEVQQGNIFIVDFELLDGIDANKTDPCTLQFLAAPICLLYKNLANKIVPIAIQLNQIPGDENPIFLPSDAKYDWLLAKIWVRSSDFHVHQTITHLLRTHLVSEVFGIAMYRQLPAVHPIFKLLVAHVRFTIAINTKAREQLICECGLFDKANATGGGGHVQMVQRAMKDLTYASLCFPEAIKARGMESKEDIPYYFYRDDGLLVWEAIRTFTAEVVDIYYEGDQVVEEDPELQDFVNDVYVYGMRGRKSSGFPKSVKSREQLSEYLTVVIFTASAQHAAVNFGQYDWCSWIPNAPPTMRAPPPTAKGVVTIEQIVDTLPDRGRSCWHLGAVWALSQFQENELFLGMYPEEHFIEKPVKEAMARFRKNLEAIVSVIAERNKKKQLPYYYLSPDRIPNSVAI
Excerpt: (§1) In vitro evaluation of the ability of a composition to inhibit the enzymes 5-lipoxygenase, 15-lipoxygenase, or 12/15 lipoxygenase as described in Walidge, N. B. et al Anal. Biochem., 231: 354-358 (1995) using a high throughput colorimetric method; as well as in vitro evaluation of inhibiting LTB4 is described in Examples.
This procedure was used for measuring the enzymatic activity of human recombinant 5-lipoxygenase using a colorimetric method based on the ferric oxidation of xylenol orange.
• 96 well flat bottom microfilter plates (VWR, Catalog #62402-933 9295) • Lipoxygenase screening assay buffer (Cayman, Catalog #760710) • Human recombinant 5-lipoxygenase (Cayman, Catalog #60402) • Arachidonic Acid (Sigma, Catalog #A3555) • Xylenol orange tetrasodium salt (Aldrich, Catalog #227854) • Iron (II) sulfate heptahydrate (Sigma, Catalog #F7002) • Sulfuric acid (95-98%) [18M]—Methanol Procedure
(§2) Human recombinant 5-lipoxygenase (Cayman Cat #60402) was used in this assay. The test compound and/or vehicle was added to 0.51-1 5-lipoxygenase in 50 mM Tris-HCl buffer, pH 7.4. The reaction was initiated by addition of 70 μM arachidonic acid in Tris-HCl buffer, pH 7.4, and terminated after a 10 minute incubation at room temperature by addition of FOX reagent (25 mM sulphuric acid, 100 μM xylenol orange, 100 μM iron (II) sulphate, methanol:water 9:1). The yellow color of acidified xylenol orange was converted to a blue color by the lipid hydroperoxide-mediated oxidation of Fe 2+ ions and the interaction of the resulting Fe 3+ ions with the dye. The complex was allowed to form during a 1 hour incubation at room temperature with shaking. Absorbance of the Fe 3+ complex was then measured at […] using a spectrophotometer.
(§3) Negative controls contained enzyme during the incubation step but substrate was not added until after the FOX reagent.
Compounds were screened at 5 concentrations in triplicate starting at 10 μM

[3] = molecular target: T2, porcine leukocyte 12/15-lipoxygenase (Sus scrofa, UniProt P16469); experiment: 12/15-Lipoxygenase enzyme assay; format: biochemical; conditions: 70 μM arachidonic acid, pH 7.4, 10 minute incubation; read-out: IC50, inhibition of 12/15-Lipoxygenase
T2 construct: purchased Cayman 60300
T2 sequence (P16469 1-663): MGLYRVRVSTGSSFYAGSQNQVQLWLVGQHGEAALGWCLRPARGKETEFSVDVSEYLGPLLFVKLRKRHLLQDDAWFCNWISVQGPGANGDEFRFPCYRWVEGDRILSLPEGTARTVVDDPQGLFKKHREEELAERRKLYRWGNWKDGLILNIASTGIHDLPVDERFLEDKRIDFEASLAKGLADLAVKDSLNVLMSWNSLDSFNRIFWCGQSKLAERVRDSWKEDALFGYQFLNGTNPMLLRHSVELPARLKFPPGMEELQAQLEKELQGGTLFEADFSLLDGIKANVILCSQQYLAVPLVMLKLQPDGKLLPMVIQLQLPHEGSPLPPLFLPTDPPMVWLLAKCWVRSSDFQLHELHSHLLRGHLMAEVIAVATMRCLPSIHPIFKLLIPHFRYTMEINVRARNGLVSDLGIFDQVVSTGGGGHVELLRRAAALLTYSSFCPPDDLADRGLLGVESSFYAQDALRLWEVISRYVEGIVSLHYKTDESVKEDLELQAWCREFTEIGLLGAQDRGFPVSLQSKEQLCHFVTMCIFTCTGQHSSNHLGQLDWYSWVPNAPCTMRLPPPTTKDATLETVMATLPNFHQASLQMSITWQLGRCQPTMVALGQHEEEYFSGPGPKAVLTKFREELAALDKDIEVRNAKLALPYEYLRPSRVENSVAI
Excerpt: as §1
This procedure was used for measuring the enzymatic activity of porcine leukocyte 12/15-lipoxygenase using a colorimetric method based on the ferric oxidation of xylenol orange.
• 96 well flat bottom microfilter plates (VWR, Catalog #62402-933 9295) • Lipoxygenase screening assay buffer (Cayman, Catalog #760710) • Porcine leukocyte 12/15-lipoxygenase (Cayman, Catalog #60300) • Arachidonic Acid (Sigma, Catalog #A3555) • Xylenol orange tetrasodium salt (Aldrich, Catalog #227854) • Iron (II) sulfate heptahydrate (Sigma, Catalog #F7002) • Sulfuric acid (95-98%) [18M] • Methanol Procedure
as §2, with “Porcine Leukocyte 12/15-lipoxygenase” for “Human recombinant 5-lipoxygenase”, “#60300)” for “#60402)”, “Test” for “The test”, “1.3 U 12/15-lipoxygenase” for “0.51-1 5-lipoxygenase”
as §3
Compounds are screened at 5 concentrations in triplicate starting at 10 μM

Cc1c(C)c2c(c(C)c1O)CCC(C)(c1cccs1)O2 (stereo not drawn) [2,5,7,8-Tetramethyl-2-thiophen-2-yl-chroman-6-ol]
> 6.00: pEC50 [1] | pIC50 [2] | pIC50 [3]
